Measurements taken from ChEMBL document CHEMBL5344418, “Recent developments in antimalarial activities of 4-aminoquinoline derivatives” (Eur J Med Chem, 2023).
Blank lines part the entries; values can stand above or below the compound they belong to.

What was measured:
[1] = Cytotoxicity against African green monkey Vero cells assessed as reduction in cell viability incubated for 24 hrs by fluorescence based analysis; assay type: toxicity; details: African green monkey (Chlorocebus sabaeus)
Hemozoin [2] = experiment: Inhibition of Beta-hematin formation in Plasmodium falciparum 3D7 by spectrophotometric analysis
Hemozoin [3] = experiment: Inhibition of Beta-hematin formation in Plasmodium falciparum K1 by spectrophotometric analysis
Plasmodium falciparum [4] = experiment: Antiplasmodial activity against chloroquine-sensitive Plasmodium falciparum NF54 by lactate dehydrogenase assay; assay type: functional, organism-based
[5] = Cytotoxicity against Chinese hamster CHO cells assessed as reduction in cell viability by MTT assay; assay type: toxicity, cell-based; details: Chinese hamster (Cricetulus griseus)
Plasmodium falciparum [6] = experiment: Antimalarial activity against chloroquine-resistant Plasmodium falciparum K1 assessed as reduction in parasite growth incubated for 72 hrs by SYBR Green staining based fluorescence analysis; assay type: functional, organism-based; details: K1, 72 h
Plasmodium falciparum [7] = experiment: Antimalarial activity against chloroquine-sensitive Plasmodium falciparum 3D7 assessed as reduction in parasite growth incubated for 72 hrs by SYBR Green staining based fluorescence analysis; assay type: functional, organism-based; details: 3D7, 72 h
[8] = Cytotoxicity against African green monkey Vero cells assessed as reduction in cell viability incubated for 72 hrs by MTT assay; assay type: toxicity, cell-based; details: chlorocebus sabaeus
Plasmodium falciparum [9] = experiment: Antiplasmodial activity against Plasmodium falciparum 3D7 assessed as growth inhibition measured after 72 hrs by SYBR green dye based assay; assay type: functional, organism-based; details: 3D7, 72 h
Plasmodium falciparum [10] = experiment: Antiplasmodial activity against Plasmodium falciparum K1 assessed as growth inhibition measured after 72 hrs by SYBR green dye based assay; assay type: functional, organism-based; details: K1, 72 h

SMILES: O=C1c2ccc(N3CCCCC3)cc2C(=O)N1CCCCNc1ccnc2cc(Cl)ccc12
IC50 at 24 h [1]: 27 µM

SMILES: O=C1c2ccc(N3CCN(CCO)CC3)cc2C(=O)N1CCCCNc1ccnc2cc(Cl)ccc12
IC50 at 24 h [1]: 24.6 µM

SMILES: O=C1c2ccc(N3CCN(CCO)CC3)cc2C(=O)N1CCCCCCNc1ccnc2cc(Cl)ccc12
IC50 at 24 h [1]: 23.3 µM

SMILES: O=C1c2cccc(N3CCOCC3)c2C(=O)N1CCCCCCNc1ccnc2cc(Cl)ccc12
IC50 at 24 h [1]: 50.8 µM

SMILES: O=C1c2ccc(N3CCOCC3)cc2C(=O)N1CCCCCCNc1ccnc2cc(Cl)ccc12
IC50 at 24 h [1]: 25.4 µM

SMILES: O=C1c2ccc(N3CCN(CCO)CC3)cc2C(=O)N1CCCNc1ccnc2cc(Cl)ccc12
IC50 at 24 h [1]: 25.3 µM

SMILES: CN(c1ccnc2cc(Cl)ccc12)C(Cc1ccccc1)CN1CCOCC1 (stereo not drawn)
IC50 (Plasmodium falciparum [6]): 1.38 µM
IC50 (Plasmodium falciparum [7]): 1.2 µM
CC50 at 72 h [8]: 33.5 µM

SMILES: CC(C)CC(CN1CCN(C)CC1)N(C)c1ccnc2cc(Cl)ccc12 (stereo not drawn)
IC50 (Plasmodium falciparum [6]): 0.26 µM
IC50 (Plasmodium falciparum [7]): 0.06 µM
CC50 at 72 h [8]: 36.6 µM

SMILES: CSCCC(CN1CCN(Cc2ccccc2)CC1)Nc1ccnc2cc(Cl)ccc12 (stereo not drawn)
IC50 (Plasmodium falciparum [9]): 3.1 µM
IC50 (Plasmodium falciparum [10]): > 5 µM

SMILES: O=C(/C=C/c1ccc(F)cc1F)c1ccc(S(=O)(=O)NCCCNc2cncc3cc(Cl)ccc23)cc1
IC50 (Plasmodium falciparum [4]): 0.5 µM
IC50 [5]: 22.4 µM

SMILES: O=C(/C=C/c1ccc(Cl)cc1)c1ccc(S(=O)(=O)NCCCNc2cncc3cc(Cl)ccc23)cc1
IC50 (Plasmodium falciparum [4]): 0.1 µM
IC50 [5]: 41.2 µM

SMILES: O=C1c2ccc(N3CCN(CCO)CC3)cc2C(=O)N1CCNc1ccnc2cc(Cl)ccc12
IC50 at 24 h [1]: 26 µM

SMILES: CC(C)CC(CN1CCCCC1)N(C)c1ccnc2cc(Cl)ccc12 (stereo not drawn)
IC50 (Plasmodium falciparum [6]): 0.42 µM
IC50 (Plasmodium falciparum [7]): 0.15 µM

SMILES: O=C1c2ccc(N3CCOCC3)cc2C(=O)N1CCCCNc1ccnc2cc(Cl)ccc12
IC50 at 24 h [1]: 26.9 µM

SMILES: O=C1c2cccc(N3CCCCC3)c2C(=O)N1CCCCCCNc1ccnc2cc(Cl)ccc12
IC50 at 24 h [1]: 204 µM

SMILES: O=C(/C=C/c1ccccc1Cl)c1ccc(S(=O)(=O)NCCNc2cncc3cc(Cl)ccc23)cc1
IC50 (Plasmodium falciparum [4]): 0.37 µM
IC50 [5]: 35.4 µM

SMILES: CN(c1ccnc2cc(C(F)(F)F)ccc12)C(Cc1ccccc1)CN1CCCCC1 (stereo not drawn)
IC50 (Plasmodium falciparum [7]): 1.37 µM

SMILES: O=C(/C=C/c1ccccc1F)c1ccc(S(=O)(=O)NCCCNc2cncc3cc(Cl)ccc23)cc1
IC50 (Plasmodium falciparum [4]): 0.86 µM
IC50 [5]: 45.5 µM

SMILES: CN(c1ccnc2cc(C(F)(F)F)ccc12)C(Cc1ccccc1)CN1CCOCC1 (stereo not drawn)
IC50 (Plasmodium falciparum [7]): 3.89 µM

SMILES: O=C1c2cccc(N3CCOCC3)c2C(=O)N1CCCCNc1ccnc2cc(Cl)ccc12
IC50 at 24 h [1]: 108 µM

SMILES: CN(CCCN1CCOCC1)c1ccnc2cc(C(F)(F)F)ccc12
IC50 (Plasmodium falciparum [6]): 0.82 µM
IC50 (Plasmodium falciparum [7]): 0.88 µM
CC50 at 72 h [8]: 200 µM

SMILES: CCN(CC)CC(CC(C)C)N(C)c1ccnc2cc(C(F)(F)F)ccc12 (stereo not drawn)
IC50 (Plasmodium falciparum [6]): 2.5 µM
IC50 (Plasmodium falciparum [7]): 3.8 µM
CC50 at 72 h [8]: 52 µM

Further lines, with some results ahead:

IC50 (Hemozoin [2]): 0.079 µM
IC50 (Hemozoin [3]): 0.34 µM
SMILES: Clc1ccc2c(NCCn3cncc3C3CCCC3)ccnc2c1

IC50 (Hemozoin [2]): 5 µM
IC50 (Hemozoin [3]): 0.46 µM
SMILES: Cc1ccsc1-c1cncn1CCNc1ccnc2cc(Cl)ccc12

IC50 (Hemozoin [2]): 0.14 µM
IC50 (Hemozoin [3]): 0.5 µM
SMILES: CC(C)(C)c1cncn1CCNc1ccnc2cc(Cl)ccc12

IC50 (Hemozoin [2]): 2.83 µM
IC50 (Hemozoin [3]): 0.29 µM
SMILES: CC(C)c1ccc(-c2cncn2CCNc2ccnc3cc(Cl)ccc23)cc1

IC50 (Hemozoin [2]): 0.21 µM
IC50 (Hemozoin [3]): 0.45 µM
SMILES: FC(F)(F)c1ccc(-c2cncn2CCNc2ccnc3cc(Cl)ccc23)cc1

IC50 (Hemozoin [2]): 5 µM
IC50 (Hemozoin [3]): 1.7 µM
SMILES: Clc1ccc2c(NCCn3cncc3-c3c[nH]c4ccccc34)ccnc2c1

IC50 (Plasmodium falciparum [4]): 0.58 µM
SMILES: COc1ccc(/C=C/C(=O)c2ccc(S(=O)(=O)NCCCNc3cncc4cc(Cl)ccc34)cc2)c(OC)c1OC
IC50 [5]: 22.6 µM

IC50 (Hemozoin [2]): 0.52 µM
IC50 (Hemozoin [3]): 2.4 µM
SMILES: Clc1ccc2c(NCCn3cncc3-c3ccc4c(c3)OCCO4)ccnc2c1

IC50 (Hemozoin [2]): 5 µM
IC50 (Hemozoin [3]): 0.73 µM
SMILES: N#Cc1ccc(-c2cncn2CCNc2ccnc3cc(Cl)ccc23)cc1

IC50 (Plasmodium falciparum [4]): 4.45 µM
SMILES: O=C(/C=C/c1ccco1)c1ccc(S(=O)(=O)NCCCNc2cncc3cc(Cl)ccc23)cc1
IC50 [5]: > 50 µM

IC50 (Plasmodium falciparum [4]): 0.39 µM
SMILES: Cc1ccc(/C=C/C(=O)c2ccc(S(=O)(=O)NCCNc3cncc4cc(Cl)ccc34)cc2)cc1
IC50 [5]: 24.9 µM

IC50 (Hemozoin [2]): 5 µM
IC50 (Hemozoin [3]): 1.78 µM
SMILES: COc1ccc(-c2cncn2CCNc2ccnc3cc(Cl)ccc23)cc1

IC50 (Hemozoin [2]): 5 µM
IC50 (Hemozoin [3]): 2.62 µM
SMILES: Clc1ccc2c(NCCn3cncc3-c3cccc(Oc4ccccc4)c3)ccnc2c1

IC50 (Hemozoin [2]): 3.79 µM
IC50 (Hemozoin [3]): 5 µM
SMILES: Oc1ccc(-c2cncn2CCNc2ccnc3cc(Cl)ccc23)cc1

IC50 (Hemozoin [2]): 5 µM
IC50 (Hemozoin [3]): 1.15 µM
SMILES: Clc1ccc2c(NCCn3cncc3-c3ccc[nH]3)ccnc2c1

IC50 (Plasmodium falciparum [4]): 0.49 µM
SMILES: COc1ccc(/C=C/C(=O)c2ccc(S(=O)(=O)NCCNc3cncc4cc(Cl)ccc34)cc2)cc1
IC50 [5]: 17.5 µM
